Patent publication US7358088B2, “Peptides and compositions which modulate apoptosis” (ImmunoGen, Inc., priority 1995, dated 2008)
Ends that are not written are not given here.

Experiments:
[1] = biological target: T1, Bcl-xL/Bak GD domain interaction (Homo sapiens, UniProt Q07817); experiment: High through-put screening assay 2: GST-Bcl-xL binding to biotinylated Bak GD peptide on neutravidin wells, ELISA; conditions: competing peptide added, ELISA signal
T1 construct: made in house; host or cells: E. coli
Method: An assay was developed to screen for compounds that block the interaction between the Bcl-2 homologs, Bcl-xL and Bak. A synthetic peptide corresponding to the Bak GD binding domain ([…] [SEQ ID NO: 35]) was biotinylated and bound to wells coated with neutravidin. […] Peptides encompassing the GD domain from various Bcl-2 family members were tested for their ability to block GD domain-mediated interactions in this assay. Peptides tested: Bcl-w [SEQ ID NO: 39] […] ([…]), Bak [SEQ ID NO: 36]([…]), Bak-15 [SEQ ID NO: 37] ([…]), Bak-15L78A [SEQ ID NO: 38] ([…]), control (no peptide).
In a modification of the high through-put screening assay 1 described herein, wells are coated with an avidin derivative, to which a biotinylated peptide/protein is bound. A GST-fusion protein that can interact with the biotinylated peptide/protein is added in the presence or absence of test compounds. The plates are incubated and then unbound GST-fusion protein is removed by washing. The amount of GST-fusion protein specifically bound to the tethered peptide/protein is determined by ELISA using an anti-GST antibody conjugated to horse radish peroxidase. Compounds which block the interaction between the biotinylated peptide/protein and the GST-fusion protein cause a decrease in the ELISA signal.
In a specific example, an assay was developed to screen for compounds that block the interaction between the Bcl-2 homologs, Bcl-xL and Bak. A biotinylated Bak GD domain peptide (amino acid residues 71-89; N-biotinylated […] [SEQ ID NO: 35]) was bound to wells coated with neutravidin. […] Using this assay, peptides from Bcl-2 family members were identified which block the Bcl-xL/Bak GD domain interaction (FIG. 10).

[2] = biological target: T2, Bcl-xL (Homo sapiens, UniProt Q07817); experiment: In vitro protein binding assay, 35S labeled protein with GST-Bcl-xL on glutathione-agarose beads; set-up: made in house; host or cells: E. coli; conditions: in vitro translated 35S labeled protein; GST alone as specificity control
Method: A). Bak/Bcl-xL interactions measured in vitro. ^35S labeled in vitro translated Bak (lane 1) was mixed either with GST-Bcl-xL (lane 2) or GST (lane 3). The complexes were captured on glutathione-agarose beads, and bound ^35S labeled Bak protein was detected by electrophoresis on SDS polyacrylamide gels followed by autoradiography.
The beads were removed by centrifugation and the supernatants were incubated with GST or GST-Bcl-xL (final concentration […]) at 4° C. for 1 hour. The GST fusion proteins and any interacting proteins were recovered by incubation for 1 hour with an additional […] of GSH-agarose beads. The beads were washed twice with NP-40 lysis buffer followed by two washes with NP-40 lysis buffer without NP-40. Proteins were eluted from the beads by incubation in SDS-PAGE sample buffer at 100° C. for 5 min and loaded onto 4-20% SDS-polyacrylamide gels. Following electrophoresis, gels were fixed and incubated in a fluorography enhancing solution (Amplify; Amersham). The gels were dried and subjected to autoradiography at −70° C.

[3] = biological target: T2, Bcl-xL; experiment: Co-immunoprecipitation of epitope-tagged proteins from transfected COS cells; format: cell-based; conditions: anti-HA immunoprecipitation, western blot
Method: B). Bak/Bcl-xL interactions detected in transfected cells. Plasmids expressing epitope-tagged forms of Bak and Bcl-xL (HA-Bak and Flag tag-Bcl-xL) were co-transfected into COS cells. HA-Bak was immunoprecipitated (anti-HA IP) from transfected cell lysates and associated Bcl-xL was detected by Western blot analysis with an anti-Flag tag antibody.
COS cells were grown in Dulbecco's modified Eagle's medium (Life Technologies, Inc.) supplemented with 10% bovine calf serum, 2% L-glutamine and 1% pen/strep (Life Technologies, Inc.). Cells were seeded at 2.0×10^5 cells/35 mm well and transfected with expression plasmids 24 hours later using Lipofectamine as described by the supplier (Life Technologies, Inc.). Bak (and Bak mutants) was expressed as a fusion protein with the HA epitope tag at its amino terminus. Bcl-xL was also expressed with an amino terminal epitope tag (Flag; Kodak). At 24 hours post-transfection, cells were washed with phosphate buffered saline and lysed in NP-40 Lysis buffer also containing 1 mM PMSF, […] pepstatin, and […] leupeptin. The lysates were incubated with anti-HA antibody (12CA5, Boehringer Mannheim) for 1 hour and with […] BSA-washed Protein A-agarose beads (50% slurry) for an additional hour. The beads were washed twice with NP-40 lysis buffer followed by two washes with NP-40 lysis buffer without NP-40. […]

[4] = system: Rat-1 cells; experiment: Transient transfection cell killing assay (loss of β-galactosidase-positive blue cells); format: cell-based; conditions: Rat-1 cells co-transfected with β-galactosidase marker plasmid, 24 hours post transfection, relative to control vector
Method: (§1) The transient transfection assay procedure is similar to that previously described for detecting apoptosis induced by IL-1E-converting enzyme (Miura et al., Cell 75: 653-660 (1993); Kumar et al., Genes Dev. 8: 1613-1626 (1994); Wang et al., Cell 78: 739-750 (1994). One day prior to transfection, Rat-1 cells were plated in 24 well dishes at 3.5X10^4 cells/well. The following day, the cells were transfected with a marker plasmid encoding β-galactosidase (0.16 μg), in combination with an expression plasmid encoding Bak (0.42 μg), by the Lipofectamine procedure (Gibco/BRL). At 24 hours post transfection, cells were fixed and stained with X-Gal to detect J-galactosidase expression in cells that received plasmid DNA (Miura et al., supra). The number of blue cells was counted by microscopic examination and scored as either live (flat blue cells) or dead (round blue cells). The cell killing activity of Bak in this assay is manifested by a large reduction in the number of blue cells obtained relative to co-transfection of the β-gal plasmid with a control expression vector (i.e., with no bak cDNA insert).
The interpretation that loss of blue cells reflects the cell killing function of Bak is supported by a variety of observations: • 1. Rat-1 cells are rapidly killed by enforced Bak expression in stable transfection assays; • 2.
Enforced bak expression induces apoptosis in stable Rat-1 cell lines transfected with an inducible bak expression plasmid. In order to more rapidly assess the cell killing function of a large number of bak mutants, a transient transfection assay was employed. Rat-1 cells were transfected with a marker plasmid encoding β-galactosidase, in combination with an expression plasmid encoding Bak, or various control plasmids.

[5] = system: Mouse Embryonic Fibroblasts (MEF) lacking functional p53; experiment: Transient transfection cell killing assay in p53-/- fibroblasts; format: cell-based; conditions: p53-/- transformed mouse fibroblasts, co-transfection with β-gal
Method: (§2) Cells were fixed and stained with X-gal at 24 hours post-transfection, and the number of blue cells (β-galactosidase-positive) counted by microscopic examination. B. Mouse Embryonic Fibroblasts (MEF) lacking functional p53 (p53^−/−MEF) were co-transfected as described in(A). C. Hela cells, derived from cervical carcinoma, were co-transfected as described in (A). D. BT549 cells, derived from breast carcinoma, were co-transfected as described in (A).
as §1, with “The cell killing activity of Bak in this assay is manifested by a large reduction in the number of blue cells obtained relative to co-transfection of the β-gal plasmid with a control expression vector (i.e., with no bak cDNA insert).” left out
(§3) Bak cell killing activity was assessed in several additional cell lines. […]

[6] = system: BT549 (breast carcinoma) cells; experiment: Transient transfection cell killing assay in BT549 cells; format: cell-based, human
Method: as §2
as §1, with “The cell killing activity of Bak in this assay is manifested by a large reduction in the number of blue cells obtained relative to co-transfection of the β-gal plasmid with a control expression vector (i.e., with no bak cDNA insert).” left out
as §3

[7] = system: Hela (cervical carcinoma) cells; experiment: Transient transfection cell killing assay in Hela cells; format: cell-based, human
Method: as §2
as §1, with “The cell killing activity of Bak in this assay is manifested by a large reduction in the number of blue cells obtained relative to co-transfection of the β-gal plasmid with a control expression vector (i.e., with no bak cDNA insert).” left out
as §3

[8] = system: HeLa cells; experiment: Microinjection assay, protection from anti-Fas and cycloheximide induced death; format: cell-based; conditions: for effect on cell viability: HeLa cells, microinjected peptide, absence of anti-Fas treatment
Method: HeLa cells (>100 cells/condition) were microinjected without (buffer) or with GST-Bcl-xL (0.3 mg/ml) in the absence or presence of GD domain peptides (0.5 mg/ml) and the recovery of live injected cells was determined after treatment with anti-Fas and cycloheximide for 18 hours. FITC-dextran was coinjected as a marker. A 15-amino acid Bak GD domain peptide (Bak-15; residues 73-87; […] [SEQ ID NO: 37]) and a mutant Bak GD domain peptide with an alanine substitution at leucine 78 (Bak-15L78A; […] [SEQ ID NO: 38]) were tested.
A cell-based microinjection assay is provided for the identification of agents that antagonize GD domain-mediated interactions and inhibit the cell death suppression activity of Bcl-xL and/or Bcl-2. One or preferably more than one cells are microinjected with a death suppressor protein, such as Bcl-xL or Bcl-2, which protects the cells from induction of cell death by an apoptosis-inducing agent, in the presence of a test compound, composition or agent. Compounds that bind to the death suppressor protein and prevent its protective function, resulting in the death of the microinjected cells, can thereby be identified.
The ability of GD domain peptide variants to inhibit the function of Bcl-xL correlated with their ability to bind to Bcl-xL (see FIG. 10). […] Similar results were obtained with MRC5 human diploid fibroblasts where protection from anti-Fas-induced death by microinjected Bcl-xL was inhibited by co-injection of the wild-type, but not mutant, Bak BH3 peptide.
Microinjection procedure: HeLa cells were plated in complete DMEM in 60 mm dishes at 2.4×10^5 cells per dish. […] Following injection, the cells were returned to the incubator and after 1 hour the number of injected cells was determined by fluorescence microscopy. Cells were then treated with anti-Fas mAb (7C11) and cycloheximide ([…]) and the recovery of injected cells remaining after 18 hours was determined.

T1 sequence (Q07817 whole entry, the tested form may be a part): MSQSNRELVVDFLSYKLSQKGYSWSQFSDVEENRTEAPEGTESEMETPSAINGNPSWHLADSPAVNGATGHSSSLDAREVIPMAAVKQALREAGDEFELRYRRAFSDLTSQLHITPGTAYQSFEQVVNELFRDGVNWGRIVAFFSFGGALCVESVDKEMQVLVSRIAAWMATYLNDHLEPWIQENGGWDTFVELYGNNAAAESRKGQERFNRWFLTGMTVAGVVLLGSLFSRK
T2 sequence (Q07817 whole entry): as the sequence (Q07817 whole entry, the tested form may be a part) above

AADPLHQAMRAAGDEFETRF [Bcl-w peptide] was tested, and the “inhibition of Bcl-xL/Bak GD domain binding” value (“inhibition” for short) [1] was “did not block binding”.
For “Bak: Bcl-2 related cell death protein, HA-epitope tagged, expressed from plasmid or in vitro translated”, the “binding to GST-Bcl-xL in vitro” value [2] was “binds”, the “interaction with Bcl-xL in transfected cells” value [3] was “specific Bak/Bcl-xL interaction could also be detected” and the “cell killing activity (reduction in number of blue β-gal expressing cells)” value [4] was “large reduction in the number of blue (β-gal expressing) cells”. The “cell killing (number of blue cells)” value [5] was “greatly reduced the number of blue cells”, the “cell killing (number of blue cells)” value [6] was “can kill human tumor cells” and the “cell killing (number of blue cells)” value [7] was “can kill human tumor cells”.
“GSDALALRLACIGDEMDVSL [Bip1a peptide, peptide encompassing the GD domain from Bip1a]” was tested, and the “inhibition” value [1] was “concentration-dependent inhibition of binding”.
In the case of “GST-Bcl-xL: bacterially-expressed GST fusion protein of the survival protein Bcl-xL”, the “protection from death induced by Fas ligation” value ([8]; HeLa cells microinjected with 0.3 mg/ml protein, anti-Fas and cycloheximide 18 hours) was “efficiently protected HeLa cells from death”.
With QVGRQAAIIGDDINR [Bak-15L78A] the “effect on cell viability” value [8] was “neither peptide had an effect on cell viability”.
For QVGRQLAIIGDDINR [Bak-15], the “effect on cell viability” value [8] was “neither peptide had an effect on cell viability”.
With “STKKLSECLKRIGDELDSNH [Bax peptide, peptide encompassing the GD domain from Bax]” the “inhibition” value [1] was “concentration-dependent inhibition of binding”.
